Patent US11229204B2, “Herbicidal composition comprising at least one phenolic active compound” (UNIVERSITÉ DE LIÈGE, priority 2018, dated 2022)

Key:
[1] = tested on: Raphanus sativus and Lepidium sativum; conditions: 27 flavonoids tested; only poor results on radical elongation for the highest tested concentration of 10^−4M; cited from earlier work
Trifolium incarnatum = experiment: Pre-emergence activity, experiment n° 2: hypocotyl and root lengths of seeds on moistened filter paper; type: in vivo; conditions: 100 mg/L in methanol 1%
Method: Seeds of Trifolium incarnatum were obtained from ECOSEM industry (Belgium). Filter papers were placed in petri dishes and moistened with 2 ml of methanol 1% solution for the seedling control, or with myricitrin solution at 100 mg/L in methanol 1% for the treated seedling. Methanol was identified as a solvent not interfering with the pre-emergence of plants. Ten seeds of Trifolium incarnatum were then placed immediately in each petri dish and three replicates were prepared. All petri dishes were randomly placed in a growth chamber at a temperature of 23±1° C., in the dark and the hypocotyls and root lengths were measured after 7 days.

SMILES	effect on germination and radical elongation [1]	seed germination compared with control (Trifolium incarnatum; 7 incubation days)	development of roots and hypocotyls (Trifolium incarnatum; 7 days (FIG. 5))	phytotoxic effect on the pre-emergence in comparison with the control (Trifolium incarnatum; 7 days, 23±1° C., dark (FIG. 5))
COc1c(-c2ccccc2)oc2ccccc2c1=O [3-OCH3-flavone]	act on germination and on radical elongation	–	–	–
COc1ccc(-c2cc(=O)c3ccccc3o2)cc1OC [3′,4′-di-OCH3-flavone]	act on germination and on radical elongation	–	–	–
C[C@@H]1O[C@@H](Oc2c(-c3cc(O)c(O)c(O)c3)oc3cc(O)cc(O)c3c2=O)[C@H](O)[C@H](O)[C@H]1O [myricitrin]	–	inhibited seed germination	inhibited	significant phytotoxic effect
O=C1C[C@@H](c2ccccc2)Oc2cc(O)cc(O)c21 [pinocembrin, 5,7-di-OH-flavanone]	act on germination and on radical elongation	–	–	–
O=c1c(O)c(-c2ccc(O)c(O)c2)oc2cc(O)cc(O)c12 [quercetin, 3,5,7,3′,4′-penta-OH-flavone]	act on germination and on radical elongation	–	–	–
